Test [1] addresses T1, GLP-1 receptor (Homo sapiens, UniProt P43220).
T1 construct: expressed in transfected cells
The experiment in a line: Agonist activity against GLP-1 receptor, CRE-luciferase reporter (ONE-Glo) in CHO-K1/CRE-luc/GLP-1 receptor cells. The class given is cell-based. The note with it: 6 h incubation, luciferase readout. The text has this: This experiment was intended to test the agonist activity of the compound molecules against the GLP-1 receptor and evaluate the in vitro activity of the molecules according to EC50. The experiment adopted a ONE-Glo™ Luciferase Assay System (Promega, E6110). Under the action of compound molecules, GLP-1R downstream signaling pathways were activated to cause elevated cAMP level. The combination of cAMP and CRE could start the transcription expression of CRE downstream luciferase genes, the luciferase could emit fluorescence when reacting with substrates thereof, and the activity of the compound for agonizing GLP-1 receptors was reflected by measuring fluorescence signals through a ONE-Glo™ reagent.
Stably-expressed CHO-K1/CRE-luc/GLP-1 receptor cell strains (self-construction of GLP-1 receptor plasmid; CRE-luc plasmid Promega E8471) was constructed. CHO-K1/CRE-luc/GLP-1 receptor cells were digested, and resuspended after centrifugation. Single cell suspension was uniformly mixed, and adjusted to a viable cell density of 2.5×10^5 cell/mL with a cell culture medium (DME/F-12+10% FBS), and the resulting solution was added to a 96-well cell culture plate at 90 μL/well (Corning, #3903). The plate was incubated in an incubator for 16 h (37° C., 5% CO2).
The compound was dissolved in DMSO to prepare a stock solution with an initial concentration of 20 mM. The starting concentration of the small molecule compound was 0.2 mM, and the compound underwent 3-fold serial dilution for a total of 10 concentration points, with DMSO at the 11th point. To another 96-well plate was added 95 μL of cell culture medium (DME/F-12+10% FBS), 5 μL of test samples with different concentrations were added to each well, followed by uniform mixing, and then 10 μL of test samples with different concentrations were added to each well, with two duplicate wells set for each sample. The plate was incubated in an incubator for 6 h (37° C., 5% CO2). The 96-well cell culture plate was taken out, and 100 μL of ONE-Glo™ reagent was added to each well, followed by incubation at room temperature for 10 min. The plate was placed in a microplate reader (EnVision 2105, PE) for determination of chemiluminescence.
Data were processed and analyzed using Microsoft Excel and Graphpad Prism 5.
In general terms: In a reporter assay the amount or activity of a reporter protein is the signal.

The target of test [2] is T2, hERG potassium ion channel (Homo sapiens, UniProt Q12809).
T2 construct: expressed in transfected cells
T2 sequence (Q12809 whole entry): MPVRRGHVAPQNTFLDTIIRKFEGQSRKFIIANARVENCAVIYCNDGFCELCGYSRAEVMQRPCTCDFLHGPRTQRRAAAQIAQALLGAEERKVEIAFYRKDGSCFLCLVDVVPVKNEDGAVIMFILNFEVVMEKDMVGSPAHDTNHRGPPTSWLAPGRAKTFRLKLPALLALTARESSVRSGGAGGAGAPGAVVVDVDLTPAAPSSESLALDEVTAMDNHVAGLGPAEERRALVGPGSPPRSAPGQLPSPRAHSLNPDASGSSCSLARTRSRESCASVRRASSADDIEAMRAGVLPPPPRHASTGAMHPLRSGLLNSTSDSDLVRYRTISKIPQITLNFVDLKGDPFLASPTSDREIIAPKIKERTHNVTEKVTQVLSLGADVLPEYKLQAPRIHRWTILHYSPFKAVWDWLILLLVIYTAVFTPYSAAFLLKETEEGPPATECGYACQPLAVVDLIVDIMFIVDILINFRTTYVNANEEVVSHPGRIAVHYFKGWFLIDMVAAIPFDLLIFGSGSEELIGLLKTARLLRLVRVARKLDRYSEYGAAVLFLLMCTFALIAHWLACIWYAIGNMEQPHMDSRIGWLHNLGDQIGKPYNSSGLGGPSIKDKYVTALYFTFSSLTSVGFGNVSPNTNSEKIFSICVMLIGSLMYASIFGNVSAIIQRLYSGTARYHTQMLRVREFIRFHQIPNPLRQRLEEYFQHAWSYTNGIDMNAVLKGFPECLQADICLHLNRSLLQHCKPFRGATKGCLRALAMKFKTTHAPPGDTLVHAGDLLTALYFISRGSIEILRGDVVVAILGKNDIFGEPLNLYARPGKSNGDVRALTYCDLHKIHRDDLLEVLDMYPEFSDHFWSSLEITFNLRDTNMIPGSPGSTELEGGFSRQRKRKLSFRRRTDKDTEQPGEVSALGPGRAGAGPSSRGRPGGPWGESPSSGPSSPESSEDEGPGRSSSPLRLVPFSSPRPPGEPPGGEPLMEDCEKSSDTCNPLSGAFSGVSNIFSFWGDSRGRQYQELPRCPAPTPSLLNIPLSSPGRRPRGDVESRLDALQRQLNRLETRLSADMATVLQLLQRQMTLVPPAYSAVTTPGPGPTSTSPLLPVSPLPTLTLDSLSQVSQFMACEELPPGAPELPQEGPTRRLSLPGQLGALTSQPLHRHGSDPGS
Description: Blocking effect on hERG potassium currents, automated patch clamp in HEK293-hERG cells. It is filed as cell-based. To be noted: automated patch clamp (Patchliner). On the procedure: The blocking effect of hERG potassium currents by the compounds of the present disclosure was tested in a stable cell strain transfected with an hERG potassium channel using an automated patch clamp.
HEK293 cell lines were transfected with pCDNA3.1(+) from which the hERG gene had been constructed, and then stably-expressed monoclonal HEK293-hERG cell strains were selected by addition of G418. Stably-expressed HEK293-hERG cell strains were subcultured at a density of 1:4 in an MEM/EBSS medium (10% FBS, […] G418, 1% MEM non-essential amino acid solution (100×), 1% sodium pyruvate solution) and subjected to an automated patch clamp experiment within 48-72 h after the start of the culture. On the day of experiment, the cells were digested with […] pancreatin (life technologies, 12563-029), collected by centrifugation and resuspended in an extracellular fluid (140 mM NaCl, 4 mM KCl, 1 mM MgCl2, 2 mM CaCl2, 5 mMD glucose monohydrate, 10 mM HEPES, pH 7.4, 298 mOsmol) to prepare a cell suspension. The cell suspension was placed on the cell bank of the Patchliner instrument that transferred the cells to the chip (NPC-16) using a negative pressure controller. […] The currents at various concentrations of the compound and in the blank control were analyzed by data analysis software provided by HEAK EPC10 patch clamp amplifier (Nanion) and Pathlinersoftware and Pathcontrol HTsoftware. […]

Here are results for seven compounds from patent US12590081B2, “Fused imidazole derivatives, preparation method and medicinal use thereof” (Jiangsu Hengrui Pharmaceuticals Co., Ltd., priority 2020, dated 2026).

T1 sequence (P43220 24-463): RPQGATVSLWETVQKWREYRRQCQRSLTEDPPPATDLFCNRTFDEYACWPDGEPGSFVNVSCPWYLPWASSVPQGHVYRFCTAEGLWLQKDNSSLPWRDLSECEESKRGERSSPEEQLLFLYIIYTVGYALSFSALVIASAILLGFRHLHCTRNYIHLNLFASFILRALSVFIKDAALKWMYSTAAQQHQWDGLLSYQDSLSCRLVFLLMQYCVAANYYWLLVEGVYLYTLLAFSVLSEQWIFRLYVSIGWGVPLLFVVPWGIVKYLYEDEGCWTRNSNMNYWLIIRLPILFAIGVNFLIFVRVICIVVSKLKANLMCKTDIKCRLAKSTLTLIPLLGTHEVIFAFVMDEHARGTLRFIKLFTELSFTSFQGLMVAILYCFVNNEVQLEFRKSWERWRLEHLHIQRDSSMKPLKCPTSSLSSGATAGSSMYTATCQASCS

As to `CC1(c2ccc(Cl)cc2F)Oc2cccc(C3=CCN(Cc4nc5ccc(C(=O)O)cc5n4C[C@@H]4CCO4)CC3)c2O1` (stereo partly drawn) [Example 2, 2-((4-(2-(4-chloro-2-fluorophenyl)-2-methylbenzo[d][1,3]dioxol-4-yl)-3,6-dihydropyridin-1(2H)-yl)methyl)-1-(((S)-oxetan-2-yl)methyl)-1H-benzo[d]imidazole-6-carboxylic acid], in test [1], the EC50 (usually the concentration that produces a half-maximal response) worked out at 0.92 nM and the maximal response (Emax) (as a rule, the greatest response seen or fitted, relative to the assay's reference) was determined as 110%.
Consider `N#Cc1ccc(CSc2nc(C3=CCN(Cc4nc5ccc(C(=O)O)cc5n4C[C@@H]4CCO4)CC3)ccc2F)c(F)c1` [Example 6, (S)-2-((6-(4-cyano-2-fluorobenzyl)thio-5-fluoro-3′,6′-dihydro-[2,4′-bipyridin]-1′(2′H)-yl)methyl)-1-(oxetan-2-ylmethyl)-1H-benzo[d]imidazole-6-carboxylic acid], for which, in test [1], the concentration for a half-maximal effect (EC50) worked out at 0.85 nM and the Emax amounted to 108%.
With `CC(Oc1cccc(C2=CCN(Cc3nc4ccc(C(=O)O)cc4n3C[C@@H]3CCO3)CC2)n1)c1ccc(Cl)cc1F` (stereo partly drawn) [Example 3], in test [1], the EC50 stood at 1.38 nM and the maximal response (Emax) was determined as 106%.
Consider `C[C@]1(c2ccc(Cl)cc2F)Oc2cccc(C3=CCN(Cc4nc5ccc(C(=O)O)cc5n4C[C@@H]4CCO4)CC3)c2O1` [Example 4, 2-((4-((S)-2-(4-chloro-2-fluorophenyl)-2-methylbenzo[d][1,3]dioxol-4-yl)-3,6-dihydropyridin-1(2H)-yl)methyl)-1-(((S)-oxetan-2-yl)methyl)-1H-benzo[d]imidazole-6-carboxylic acid], for which, in test [1], the EC50 amounted to 0.12 nM and the Emax amounted to 104%. Besides, the IC50 (in general, the point on the concentration scale where inhibition reaches its midpoint) in test [2] came out at 22000 nM.
As to `C[C@]1(c2ccc(Cl)cc2F)Oc2cccc(C3=CCN(Cc4nc5ccc(C(=O)O)nc5n4C[C@@H]4CCO4)CC3)c2O1` [Example 7, 2-((4-((S)-2-(4-chloro-2-fluorophenyl)-2-methylbenzo[d][1,3]dioxol-4-yl)-3,6-dihydropyridin-1(2H)-yl)methyl)-3-(((S)-oxetan-2-yl)methyl)-3H-imidazo[4,5-b]pyridine-5-carboxylic acid], in test [1], the EC50 was determined as 0.45 nM and the Emax came to 107%.
In the case of `N#Cc1ccc(CSc2cccc(C3=CCN(Cc4nc5ccc(C(=O)O)cc5n4C[C@@H]4CCO4)CC3)n2)c(F)c1` [Example 5, (S)-2-((6-(4-cyano-2-fluorobenzyl)thio-3′,6′-dihydro-[2,4′-bipyridin]-1′(2′H)-yl)methyl)-1-(oxetan-2-ylmethyl)-1H-benzo[d]imidazole-6-carboxylic acid], in test [1], the EC50 was 1.93 nM and the Emax turned out to be 110%.
On the same counts, the results for `N#Cc1ccc(COc2cccc(C3=CCN(Cc4nc5ccc(C(=O)O)cc5n4C[C@@H]4CCO4)CC3)n2)c(F)c1` [Example 1] are 0.12 nM and 110%.
